In patent publication US20260138961A1, “MODULATORS OF MITOCHONDRIAL DNA REPLICATION” (Pretzel Therapeutics, Inc., priority 2022, published 2026):

target: T1, POLγA:G848S (Homo sapiens, UniProt P54098, G848S); assay: DNA polymerization assay, POLγA:G848S mutant; format: biochemical; settings: stimulation of polymerase activity, primed M13mp18 ssDNA, 37° C. 2 hours; read-out: G848S AC50
T1 sequence (P54098 1-1239 G848S): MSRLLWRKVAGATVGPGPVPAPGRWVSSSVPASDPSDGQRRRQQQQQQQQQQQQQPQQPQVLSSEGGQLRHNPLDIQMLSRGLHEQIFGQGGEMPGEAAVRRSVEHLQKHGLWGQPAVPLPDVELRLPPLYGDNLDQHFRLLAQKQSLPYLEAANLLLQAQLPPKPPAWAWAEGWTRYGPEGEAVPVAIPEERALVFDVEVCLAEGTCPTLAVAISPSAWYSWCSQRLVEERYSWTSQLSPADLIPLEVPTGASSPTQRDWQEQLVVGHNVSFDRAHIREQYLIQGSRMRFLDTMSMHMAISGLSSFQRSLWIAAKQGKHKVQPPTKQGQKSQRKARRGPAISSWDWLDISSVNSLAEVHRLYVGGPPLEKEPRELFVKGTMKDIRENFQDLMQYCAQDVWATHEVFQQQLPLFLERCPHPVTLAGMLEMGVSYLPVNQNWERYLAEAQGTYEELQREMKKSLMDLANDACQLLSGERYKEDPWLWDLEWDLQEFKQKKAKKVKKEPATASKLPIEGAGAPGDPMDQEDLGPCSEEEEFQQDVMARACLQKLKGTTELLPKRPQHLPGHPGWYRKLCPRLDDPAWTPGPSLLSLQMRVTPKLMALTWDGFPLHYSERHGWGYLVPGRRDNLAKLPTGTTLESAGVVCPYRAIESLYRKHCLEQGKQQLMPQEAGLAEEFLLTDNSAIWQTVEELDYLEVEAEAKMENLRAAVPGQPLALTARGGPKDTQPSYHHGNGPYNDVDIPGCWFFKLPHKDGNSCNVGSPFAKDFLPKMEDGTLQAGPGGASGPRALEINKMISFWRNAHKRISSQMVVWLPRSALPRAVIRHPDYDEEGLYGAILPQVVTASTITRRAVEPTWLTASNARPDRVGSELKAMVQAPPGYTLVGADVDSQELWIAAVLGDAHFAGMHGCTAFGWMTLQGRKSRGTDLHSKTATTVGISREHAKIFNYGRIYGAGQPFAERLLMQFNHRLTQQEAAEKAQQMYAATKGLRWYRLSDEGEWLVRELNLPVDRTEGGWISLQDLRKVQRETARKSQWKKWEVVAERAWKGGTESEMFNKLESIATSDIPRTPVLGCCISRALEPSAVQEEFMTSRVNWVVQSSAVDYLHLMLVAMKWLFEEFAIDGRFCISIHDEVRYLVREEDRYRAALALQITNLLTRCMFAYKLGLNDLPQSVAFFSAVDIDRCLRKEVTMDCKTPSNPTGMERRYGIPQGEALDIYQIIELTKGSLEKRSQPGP
T1 sequence (Q9UHN1 1-485 partner): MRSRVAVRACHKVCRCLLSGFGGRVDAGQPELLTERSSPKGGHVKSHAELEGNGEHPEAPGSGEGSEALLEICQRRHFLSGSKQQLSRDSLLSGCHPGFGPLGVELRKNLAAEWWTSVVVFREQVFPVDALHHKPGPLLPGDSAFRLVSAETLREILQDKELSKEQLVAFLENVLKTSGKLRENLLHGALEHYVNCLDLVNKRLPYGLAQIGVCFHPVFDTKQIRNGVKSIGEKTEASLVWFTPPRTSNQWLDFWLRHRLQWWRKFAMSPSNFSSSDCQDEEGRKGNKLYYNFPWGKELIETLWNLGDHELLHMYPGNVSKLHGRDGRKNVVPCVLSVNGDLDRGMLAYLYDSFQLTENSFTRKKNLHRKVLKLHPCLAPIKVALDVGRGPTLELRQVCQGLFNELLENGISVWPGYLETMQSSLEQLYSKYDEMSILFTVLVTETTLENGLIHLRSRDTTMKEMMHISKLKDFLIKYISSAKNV

Q: With `Cc1cc(S(=O)(=O)Nc2cccc(C(=O)N(C)C(C)CO)c2)c(C)cc1Cl` (single isomer, unassigned) [Example 15, 3-((4-chloro-2,5-dimethylphenyl)sulfonamido)-N-(1-hydroxypropan-2-yl)-N-methylbenzamide] as the molecule, how does the AC50 read?
A: Its AC50 is 30 µM.

Q: Which AC50 does the source give for `Cc1csc(-c2cccc(NS(=O)(=O)c3cc(C)c(Cl)cc3C)c2)n1` [Example 20, 4-chloro-2,5-dimethyl-N-(3-(4-methylthiazol-2-yl)phenyl)benzenesulfonamide] here?
A: The AC50 was 2 µM.

Q: Which AC50 does the source give for `Cc1cnc(-c2cccc(NS(=O)(=O)c3cc(C)c(Cl)cc3C)c2)s1` [Example 21, 4-chloro-2,5-dimethyl-N-(3-(5-methylthiazol-2-yl)phenyl)benzenesulfonamide] here?
A: Its AC50 is 2 µM.

Q: How did the AC50 turn out when `Cc1cc(S(=O)(=O)N(C)c2cccc(-c3nccs3)c2)c(C)cc1Cl` [Example 22, 4-chloro-N,2,5-trimethyl-N-(3-(thiazol-2-yl)phenyl)benzenesulfonamide] was run?
A: Its AC50 is greater than 100 µM.

Q: How did the AC50 turn out when `Cc1ccccc1S(=O)(=O)Nc1cccc(C(=O)N2CCOC[C@@H]2C)c1` [Example 23, (S)-2-methyl-N-(3-(3-methylmorpholine-4-carbonyl)phenyl)benzenesulfonamide] was run?
A: Its AC50 is greater than 100 µM.

Q: `Cc1ccc(C)c(S(=O)(=O)Nc2cccc(C(=O)N3CCSCC3)c2)c1` [Example 24, 2,5-dimethyl-N-(3-(thiomorpholine-4-carbonyl)phenyl)benzenesulfonamide] was tested. Which AC50 did it give?
A: Its AC50 is greater than 100 µM.

Q: Which AC50 does the source give for `Cc1ccc(C)c(S(=O)(=O)Nc2cccc(C(=O)N(C)C)c2)c1` [Example 25, 3-((2,5-dimethylphenyl)sulfonamido)-N,N-dimethylbenzamide] here?
A: Its AC50 is greater than 100 µM.

Q: Which AC50 does the source give for `Cc1ccc(C)c(S(=O)(=O)Nc2cccc(C(=O)N(C)Cc3ccccc3)c2)c1` [Example 26, N-benzyl-3-((2,5-dimethylphenyl)sulfonamido)-N-methylbenzamide] here?
A: Its AC50 is 50 µM.

Q: Which AC50 does the source give for `Cc1ccc(C)c(S(=O)(=O)Nc2cccc(C(N)=O)c2)c1` [Example 27, 3-((2,5-dimethylphenyl)sulfonamido)benzamide] here?
A: The AC50 was greater than 100 µM.

Q: How did the AC50 turn out when `Cc1ccc(C)c(S(=O)(=O)Nc2cccc(C(=O)NCc3ccccc3)c2)c1` [Example 28, N-benzyl-3-((2,5-dimethylphenyl)sulfonamido)benzamide] was run?
A: The AC50 was greater than 100 µM.

Q: `Cc1ccc(C)c(S(=O)(=O)Nc2cccc(C(=O)N3CCOCC3)c2)c1` [Example 29, 2,5-dimethyl-N-(3-(morpholine-4-carbonyl)phenyl)benzenesulfonamide] was tested. Which AC50 did it give?
A: The AC50 was 33 µM.

Q: `CC(=O)N1CCN(C(=O)c2cccc(NS(=O)(=O)c3cc(C)ccc3C)c2)CC1` [Example 30, N-(3-(4-acetylpiperazine-1-carbonyl)phenyl)-2,5-dimethylbenzenesulfonamide] was tested. Which AC50 did it give?
A: Its AC50 is 22 µM.

Q: For `Cc1ccc(C)c(S(=O)(=O)Nc2cccc(C(=O)N3CCN(C)CC3)c2)c1` [Example 31, 2,5-dimethyl-N-(3-(4-methylpiperazine-1-carbonyl)phenyl)benzenesulfonamide], which AC50 is on record?
A: Its AC50 is greater than 100 µM.

Q: With `Cc1ccc(C)c(S(=O)(=O)Nc2cccc(C(=O)N3CCCCCC3)c2)c1` [Example 32, N-(3-(azepane-1-carbonyl)phenyl)-2,5-dimethylbenzenesulfonamide] as the molecule, how does the AC50 read?
A: The AC50 was 35 µM.

Q: Which AC50 does the source give for `Cc1ccc(C)c(S(=O)(=O)Nc2cccc(C(=O)N(C)CC3CC3)c2)c1` [Example 33, N-(cyclopropylmethyl)-3-((2,5-dimethylphenyl)sulfonamido)-N-methylbenzamide] here?
A: The AC50 was 56 µM.

Q: How did the AC50 turn out when `COc1ccc(S(=O)(=O)Nc2cccc(C(=O)N3CCSCC3C#N)c2)cc1` (centres unmarked) [Example 34, N-(3-(3-cyanothiomorpholine-4-carbonyl)phenyl)-4-methoxybenzenesulfonamide] was run?
A: The AC50 was 37 µM.

Q: With `N#CC1CSCCN1C(=O)c1cccc(NS(=O)(=O)c2cccc(C(F)(F)F)c2)c1` (centres unmarked) [Example 35, N-(3-(3-cyanothiomorpholine-4-carbonyl)phenyl)-3-(trifluoromethyl)benzenesulfonamide] as the molecule, how does the AC50 read?
A: The AC50 was greater than 100 µM.

Q: For `Cc1cc(S(=O)(=O)Nc2cccc3c2CC(=O)N3)c(C)cc1Cl` [Example 36, 4-chloro-2,5-dimethyl-N-(2-oxoindolin-4-yl)benzenesulfonamide], which AC50 is on record?
A: The AC50 was greater than 100 µM.

Q: Which AC50 does the source give for `Cc1cc2c(NS(=O)(=O)c3cc(C)c(Cl)cc3C)cccc2[nH]1` [Example 37, 4-chloro-2,5-dimethyl-N-(2-methyl-1H-indol-4-yl)benzenesulfonamide] here?
A: Its AC50 is greater than 100 µM.

Q: `Cc1ccc(C)c(S(=O)(=O)Nc2cncc(C(=O)N3CCOCC3)c2)c1` [Example 38, 2,5-dimethyl-N-(5-(morpholine-4-carbonyl)pyridin-3-yl)benzenesulfonamide] was tested. Which AC50 did it give?
A: The AC50 was greater than 100 µM.

Q: How did the AC50 turn out when `Cc1ccc(C)c(S(=O)(=O)Nc2ccc(C(=O)N[C@@H](C)C3CC3)cc2)c1` [Example 39, (S)-N-(1-cyclopropylethyl)-4-((2,5-dimethylphenyl)sulfonamido)benzamide] was run?
A: The AC50 was greater than 100 µM.

Q: For `Cc1ccc(C)c(S(=O)(=O)Nc2ccc(C(=O)NCC3CC3)cc2)c1` [Example 40, N-(cyclopropylmethyl)-4-((2,5-dimethylphenyl)sulfonamido)benzamide], which AC50 is on record?
A: Its AC50 is greater than 100 µM.

Q: `Cc1ccc(C)c(S(=O)(=O)Nc2cccc(C(=O)N3CCSCC3C(N)=O)c2)c1` (centres unmarked) [Example 41, 4-(3-((2,5-dimethylphenyl)sulfonamido)benzoyl) thiomorpholine-3-carboxamide] was tested. Which AC50 did it give?
A: The AC50 was 21 µM.

Q: With `Cc1cc(NS(=O)(=O)c2cc(C)ccc2C)cc(C(=O)N2CCCC[C@H]2C)c1` [Example 42, (R)-2,5-dimethyl-N-(3-methyl-5-(2-methylpiperidine-1-carbonyl)phenyl)benzenesulfonamide] as the molecule, how does the AC50 read?
A: Its AC50 is greater than 100 µM.

Q: For `Cc1ccc(C)c(S(=O)(=O)Nc2ccc(C(=O)N3CCCC[C@H]3C)s2)c1` [Example 43, (R)-2,5-dimethyl-N-(5-(2-methylpiperidine-1-carbonyl)thiopheN-2-yl)benzenesulfonamide], which AC50 is on record?
A: The AC50 was 51 µM.

Q: `Cc1cc(S(=O)(=O)Nc2cccc(C(N)=O)c2)c(C)cc1Cl` [Example 44, 3-((4-chloro-2,5-dimethylphenyl)sulfonamido)benzamide] was tested. Which AC50 did it give?
A: Its AC50 is 27 µM.

Q: Which AC50 does the source give for `Cc1cc(S(=O)(=O)Nc2cccc(C(=O)N3CCNCC3)c2)c(C)cc1Cl` [Example 46, 4-chloro-2,5-dimethyl-N-(3-(piperazine-1-carbonyl)phenyl)benzenesulfonamide] here?
A: The AC50 was 91 µM.

Q: Which AC50 does the source give for `COCCNC(=O)c1cccc(NS(=O)(=O)c2cc(C)c(Cl)cc2C)c1` [Example 47, 3-((4-chloro-2,5-dimethylphenyl)sulfonamido)-N-(2-methoxyethyl)benzamide] here?
A: Its AC50 is 39 µM.

Q: Which AC50 does the source give for `Cc1cc(S(=O)(=O)Nc2cccc(C(=O)N[C@H](C)c3ccccc3)c2)c(C)cc1Cl` [Example 48, (R)-3-((4-chloro-2,5-dimethylphenyl)sulfonamido)-N-(1-phenylethyl)benzamide] here?
A: The AC50 was 13 µM.

Q: `Cc1cc(S(=O)(=O)Nc2ccc(F)c(C(=O)N3CCC[C@H]3C)c2)c(C)cc1Cl` [Example 49, (R)-4-chloro-N-(4-fluoro-3-(2-methylpyrrolidine-1-carbonyl)phenyl)-2,5-dimethylbenzenesulfonamide] was tested. Which AC50 did it give?
A: Its AC50 is 14 µM.

Q: For `Cc1cc(S(=O)(=O)Nc2cc(C(=O)N3CCC[C@H]3C)ccc2F)c(C)cc1Cl` [Example 50, (R)-4-chloro-N-(2-fluoro-5-(2-methylpyrrolidine-1-carbonyl)phenyl)-2,5-dimethylbenzenesulfonamide], which AC50 is on record?
A: Its AC50 is 11 µM.

Q: With `Cc1cc(S(=O)(=O)Nc2cccc(C(=O)N[C@H](C)CO)c2)c(C)cc1Cl` [Example 51, (R)-3-((4-chloro-2,5-dimethylphenyl)sulfonamido)-N-(1-hydroxypropan-2-yl)benzamide] as the molecule, how does the AC50 read?
A: The AC50 was 44 µM.
